Patent US20260200903A1, “PHARMACEUTICAL COMPOSITION FOR AMELIORATING MALIGNANT DISEASES” (KINKI UNIVERSITY, priority 2020, published 2026)

Assays:
Format in all cases: cell-based
phospho-IKK = experiment: Immunoblotting of phospho-IKK in KMS-28BM cells; conditions: 72 h, vs control, same concentrations as for phospho-NIK (0.005-100 μM)
Description: (§1) Immunoblotting was performed on KMS-28BM cells to investigate the inhibitory effect of each compound administration on NIK inhibition and the activation of IKK, NF-κB p52, and NF-κB p65, which are downstream signals of NIK. As a result, inhibition of NIK activation, inhibition of IKK activity, and inhibition of nuclear translocation of NF-κB p52 and NF-κB p65 were observed (FIG. 15 and FIG. 16).
(§2) As a control, compounds untreated KMS-28BM cells were seeded in 150 cm^2 flasks and incubated for 72 h at 37° C. and 5% CO2. KMS-28BM cells were seeded into 150 cm^2 flasks and pre-cultured for 24 h. After incubation, KMS-28BM cells were treated with […], 1 μM norathyriol, 0.5 μM M7 (formula (4)), 1 μM M8 (mangiferin 8a: listed in duplicate), 0.2 μM M9 (formula (5)), 5 μM yk-7 (formula (1)), 0.5 μM yk-8-3 (formula (3)) and 100 μM yk-8-1 (formula (2)) at final concentrations, and incubated for 72 h at 37° C. and 5% CO2. In addition, KMS-28BM cells were also treated with 0.5 μM M19 (formula (12)), 0.5 μM M18 (formula (11)), 0.005 μM M16 (formula (10)), […] (formula (9)), 0.005 μM M14 (formula (8)), 0.05 μM M12 (formula (7)) and […] (formula (6)) at the final concentrations, and incubated for 72 h at 37° C. and 5% CO2. Proteins were extracted from these cell suspensions with cell lysate and used as samples.
(§3) The nucleus and cytoplasmic substrate were separated from the cells using the ProteoExtract (registered trademark) Subcellular Proteome Extraction Kit from Merck Ltd. to extract the cytoplasmic and nuclear fractions.
(§4) After SDS-PAGE, each sample was transferred to a PVDF membrane and examined using anti-phospho-NIK, anti-NIK, anti-phospho-IKK, anti-IKK, anti-P-actin, anti-NF-κB p52 and anti-NF-κB p65 antibody, and anti-Lamin antibody.
(§5) The antibody species is indicated in the vertical direction. Specifically, for anti-phospho-NIK antibody, “Phospho-NIK” was used, for anti-NIK antibody, “NIK” was used, for anti-phospho-IKK antibody, “Phospho-IKK” was used, for anti-IKK antibody, “IKK” was used, for anti-p-actin antibody, “p-actin” was used, for anti-NF-κB p52 antibody, “NF-κB p52 nuclear” was used, for anti-NF-κB p65 antibody, “NF-κB p65 nuclear” was used, and for anti-Lamin antibody, “Lamin” was used.

[1] = system: RPMI8226/B cells (bortezomib-resistant myeloma cell line); experiment: Cell death inducing effect on RPMI8226/B cells, trypan blue staining; conditions: Homo sapiens, RPMI-8226; RPMI8226/B (myeloma; bortezomib resistance), cell viability
Description: (§6) RPMI8226/B cells (bortezomib-resistant myeloma cell line) were cultured under 5% CO2 at 37° C. The culture medium used RPMI-1640 medium with 100 μg/mL penicillin, 100 U/mL streptomycin and fetal bovine serum. RPMI8226/B cells were seeded into 96-well plates and incubated with each concentration of the compounds was added, and cell viability was determined by the trypan blue staining.
(§7) For controls, only 0.5% DMSO (diluted in PBS) used to dissolve the compounds was added. For each concentration, each bar line is indicated by an arrow with the sign “n, a, 1, 2, 3, 4, 5, 6, 7, 8, 9, 10, 11, 12” from left to right. The “1, 3, 5, 7, 9, 11” are omitted from the graph, but the sign “1” shall be indicated by an arrow between the signs “a” and “2”, the sign “3” between the signs “2” and “4”, and other odd numbers shall likewise be indicated by arrows between even numbers before and after.
(§8) The sign “n” is the norathyriol (formula (n)) administration group, the sign “a” is the mangiferin 8a (formula (a)) administration group, the sign “1” is the yk-7 (formula (1)) administration group, the sign “2” is the yk-8-1 (formula (2)) administration group, the sign “3” is the yk-8-3 (formula (3)) administration group, the sign “4” is the M7 (formula (4)) administration group, the sign “5” is the M9 (formula (5)) administration group, the sign “6” is the M11 (formula (6)) administration group, the sign “7” is the M12 (formula (7)) administration group, the sign “8” is the M14 (formula (8)) administration group, the sign “9” is the M15 (formula (9)) administration group, the sign “10” is the M16 (formula (10)) administration group, the sign “11” is the M18 (formula (11)) administration group, the sign “12” is the M19 (formula (12)) administration group, respectively. The IC50 values for each compound is also listed in the upper right corner of the figure.

CD20 = CD20 expression in KMS-28BM cells, flow cytometry; conditions: 10 days, concentration lower than the IC50 (0.005-50 μM), compared to the positive control
Description: As a control, compounds untreated KMS-28BM cells were seeded in 75 cm^2 flasks and incubated for 10 days at 37° C. and 5% CO2. KMS-28BM cells were seeded into 75 cm^2 flasks and pre-cultured for 4 h. After incubation, KMS-28BM cells were treated with […], 0.05 μM M9, 0.1 μM yk-7, 0.1 μM yk-8-3, 50 μM yk-8-1, 0.5 μM M11, […], 0.005 μM M14, 0.005 μM M15, 0.005 μM M16, 0.5 μM M18, and 0.5 μM M19 at final concentrations, and incubated for 10 days at 37° C. and 5% CO2. This added amount is a concentration lower than the IC50 of the above compounds for KMS-28BM cells. After 10 days of incubation, cells were stained with anti-CD20 antibody, a B cell marker, and CD20 expression was measured using BD LSRFortessa. CCRF-SB cells were used as CD20-positive controls.
Results are shown in FIG. 21, FIG. 22, FIG. 23, and FIG. 24. The horizontal axis represents the expression level of CD20 and the vertical axis represents the number of cells.

[2] = system: Raji cells (burkitt lymphoma cell line); experiment: Cell death inducing effect on Raji cells, trypan blue staining; conditions: Homo sapiens; Raji (Burkkit lymphoma), cell viability
Description: as §6, with “Raji” for “RPMI8226/B”, “(burkitt lymphoma” for “(bortezomib-resistant myeloma”
as §7, §8

NF-κB p52 nuclear = experiment: Immunoblotting of NF-κB p52 nuclear in KMS-28BM cells; conditions: nuclear fraction, 72 h, same concentrations (0.005-100 μM)
Description: as §1, §2, §3, §4, §5

For `CCCCC(=O)OC[C@H]1O[C@@H](c2c(O)cc3oc4cc(O)c(O)cc4c(=O)c3c2OC(=O)CCCC)[C@H](OC(=O)CCCC)[C@@H](OC(=O)CCCC)[C@@H]1OC(=O)CCCC` [yk-8-3, 1,2′,3′,4′,6-penta-O-valerylmangiferin], the “phospho-IKK band density (anti-phospho-IKK antibody)” value (phospho-IKK) was “decrease in band density”, the IC50 [1] was 231 nM and the CD20 expression level (CD20) was “significantly increased”. For the same compound, the IC50 [2] was 865 nM and the “NF-κB p52 nuclear” value (NF-κB p52 nuclear) was “decreased”.
